Drawing on ChEMBL document CHEMBL1148247, “Synthesis and histone deacetylase inhibitory activity of cyclic tetrapeptides containing a retrohydroxamate as zinc ligand” (Bioorg Med Chem Lett, 2004), this text covers IC50 and EC1000 for 16 compounds.

Where a SMILES comes first, the peptide text is derived from it. [ ]: non-standard residue; d: D form. The star is where a group is joined. Asu = N[C@@H](CCCCCC(=O)O)C(=O)O; aIle = CC[C@@H](C)[C@H](N)C(=O)O; NHOH = ON*

In assay [1] the target is T1, Protein deacetylase HDAC6 (Mus musculus, UniProt Q9Z2V5).
T1 sequence (Q9Z2V5 whole entry): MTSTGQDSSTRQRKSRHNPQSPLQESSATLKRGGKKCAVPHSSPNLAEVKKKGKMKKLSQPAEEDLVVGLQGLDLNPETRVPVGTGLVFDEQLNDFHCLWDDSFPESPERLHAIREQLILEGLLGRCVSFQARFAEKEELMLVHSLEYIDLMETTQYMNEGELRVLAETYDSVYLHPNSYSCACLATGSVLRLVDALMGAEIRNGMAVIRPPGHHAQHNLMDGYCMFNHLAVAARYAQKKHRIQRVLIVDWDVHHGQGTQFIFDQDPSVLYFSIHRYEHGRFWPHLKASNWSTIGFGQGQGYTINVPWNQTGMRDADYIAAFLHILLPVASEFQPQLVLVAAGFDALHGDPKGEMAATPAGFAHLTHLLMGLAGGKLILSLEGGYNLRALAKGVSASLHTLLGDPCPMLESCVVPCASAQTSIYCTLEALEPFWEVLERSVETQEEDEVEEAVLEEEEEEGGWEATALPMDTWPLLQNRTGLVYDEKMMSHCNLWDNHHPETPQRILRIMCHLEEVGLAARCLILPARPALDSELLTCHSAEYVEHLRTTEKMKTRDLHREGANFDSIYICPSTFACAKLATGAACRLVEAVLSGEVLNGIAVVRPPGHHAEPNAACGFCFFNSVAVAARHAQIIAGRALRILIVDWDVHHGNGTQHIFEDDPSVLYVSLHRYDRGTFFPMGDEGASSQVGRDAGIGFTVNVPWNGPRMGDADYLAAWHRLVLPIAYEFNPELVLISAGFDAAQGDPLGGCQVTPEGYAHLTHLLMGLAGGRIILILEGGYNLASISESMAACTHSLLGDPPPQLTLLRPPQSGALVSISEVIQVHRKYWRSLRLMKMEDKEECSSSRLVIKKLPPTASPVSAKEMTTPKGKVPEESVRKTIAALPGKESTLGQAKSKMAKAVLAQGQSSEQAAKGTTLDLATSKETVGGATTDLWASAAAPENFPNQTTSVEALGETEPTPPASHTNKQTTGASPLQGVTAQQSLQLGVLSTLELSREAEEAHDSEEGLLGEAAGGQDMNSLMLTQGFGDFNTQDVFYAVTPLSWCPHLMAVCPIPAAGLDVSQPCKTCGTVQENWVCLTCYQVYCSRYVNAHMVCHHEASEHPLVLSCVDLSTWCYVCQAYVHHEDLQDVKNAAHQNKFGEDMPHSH
Description: Inhibitory activity against histone deacetylase 6 prepared from mouse melanoma B16/BL6 cells. The assay is classed as cell-based.

The target of assay [2] is Histone deacetylase. Description: Inhibitory activity against histone deacetylases (HDAC) prepared from mouse melanoma B16/BL6 cells. The assay is classed as cell-based.
Assay [3] deals with T2, Histone deacetylase 8 (Mus musculus, UniProt Q8VH37).
T2 sequence (Q8VH37 whole entry): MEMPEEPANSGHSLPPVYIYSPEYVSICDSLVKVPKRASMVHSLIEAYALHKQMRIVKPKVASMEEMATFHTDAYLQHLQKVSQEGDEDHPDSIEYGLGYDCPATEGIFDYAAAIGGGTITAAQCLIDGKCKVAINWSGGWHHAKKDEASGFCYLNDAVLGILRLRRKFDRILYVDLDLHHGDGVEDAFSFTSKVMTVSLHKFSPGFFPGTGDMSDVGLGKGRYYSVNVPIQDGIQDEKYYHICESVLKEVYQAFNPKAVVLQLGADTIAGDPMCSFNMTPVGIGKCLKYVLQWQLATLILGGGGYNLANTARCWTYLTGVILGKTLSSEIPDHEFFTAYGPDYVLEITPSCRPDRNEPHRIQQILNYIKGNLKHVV
Description: Inhibitory activity against histone deacetylase 8 prepared from mouse melanoma B16/BL6 cells. The assay is classed as cell-based.

For assay [4], the target named is T3, Histone deacetylase 1 (Mus musculus, UniProt O09106).
T3 sequence (O09106 whole entry): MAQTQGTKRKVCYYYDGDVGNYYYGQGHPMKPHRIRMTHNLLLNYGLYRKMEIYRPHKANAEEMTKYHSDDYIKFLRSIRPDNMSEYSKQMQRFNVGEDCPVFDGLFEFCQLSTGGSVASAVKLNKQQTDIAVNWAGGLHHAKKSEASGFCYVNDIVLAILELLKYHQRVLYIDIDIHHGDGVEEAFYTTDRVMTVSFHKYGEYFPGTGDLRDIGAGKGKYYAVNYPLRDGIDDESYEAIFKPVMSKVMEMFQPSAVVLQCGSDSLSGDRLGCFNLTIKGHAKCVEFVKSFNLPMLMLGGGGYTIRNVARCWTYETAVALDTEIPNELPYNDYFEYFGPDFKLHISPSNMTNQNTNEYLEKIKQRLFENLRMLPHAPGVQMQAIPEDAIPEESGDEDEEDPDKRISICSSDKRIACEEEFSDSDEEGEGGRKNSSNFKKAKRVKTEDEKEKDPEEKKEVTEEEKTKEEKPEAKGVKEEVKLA
Description: (§1) Inhibitory activity against histone deacetylases (HDAC1) prepared from mouse melanoma B16/BL6 cells
The species named for assay [5] is Mus musculus. Description: Effective concentration in histone deacetylases (HDAC) using p21 promoter assay.
Assay [6] addresses T3, Histone deacetylase 1. The following applies: b16/bl6.
Description: as §1

As to `CC[C@@H](C)[C@@H]1NC(=O)[C@@H](Cc2ccc(OC)cc2)NC(=O)[C@H](CCCCCN(O)C=O)NC(=O)[C@H]2CCCCN2C1=O`, the 50% inhibitory concentration (IC50) (in general, the concentration that inhibits the measured activity by half) in assay [1] turned out to be 0.782 µM; in assay [2], 0.084 µM; in assay [3], 0.046 µM; in assay [4], 0.026 µM.
The compound `CC[C@@H](C)[C@@H]1NC(=O)[C@@H](Cc2ccc(OC)cc2)NC(=O)[C@H](CCCCN(O)C=O)NC(=O)[C@@H]2CCCCN2C1=O` displayed a 50% inhibitory concentration (IC50) in assay [2] of 1.392 µM.
Compound `CC[C@@H](C)[C@@H]1NC(=O)[C@@H](Cc2ccc(OC)cc2)NC(=O)[C@H](CCCCCN(O)C=O)NC(=O)[C@@H]2CCCCN2C1=O` showed a concentration for half-maximal inhibition (IC50) in assay [2] of 0.141 µM.
In turn, `CC[C@@H](C)[C@@H]1NC(=O)[C@@H](Cc2ccc(OC)cc2)NC(=O)[C@H](CCCCN(O)C=O)NC(=O)[C@H]2CCCCN2C1=O` came in with an IC50 in assay [2] of 0.957 µM.
Same read-out and setting: as for `CC[C@@H](C)[C@@H]1NC(=O)[C@@H](Cc2ccc(OC)cc2)NC(=O)[C@H](CCCCCCN(O)C=O)NC(=O)[C@H]2CCCCN2C1=O`, the figure is 0.893 µM.
For the compound `CC[C@@H](C)[C@@H]1NC(=O)[C@@H](Cc2ccc(OC)cc2)NC(=O)[C@H](CCCCCC(=O)NO)NC(=O)[C@H]2CCCN2C1=O` (cyclo([Asu](NHOH)[dY](Me)[aIle][dP])), the EC1000 in assay [5] stood at 0.022 µM.
In assay [4], `CC[C@H](C)[C@@H]1NC(=O)[C@@H](Cc2ccc(OC)cc2)NC(=O)[C@H](CCCCCC(=O)NO)NC(=O)[C@H]2CCCN2C1=O` (cyclo([Asu](NHOH)[dY](Me)I[dP])) displayed an IC50 of 0.0004 µM.
For the compound `CC[C@@H](C)[C@@H]1NC(=O)[C@@H](Cc2ccc(OC)cc2)NC(=O)[C@H](CCCCCCN(O)C=O)NC(=O)[C@@H]2CCCCN2C1=O`, the IC50 in assay [2] came to 1.35 µM.
Still for that read-out and setting: as for `CC[C@@H](C)[C@@H]1NC(=O)[C@@H](Cc2ccc(OC)cc2)NC(=O)[C@H](CCCCN(O)C(C)=O)NC(=O)[C@H]2CCCCN2C1=O`, the figure is 88.4 µM; as for `CC[C@@H](C)[C@@H]1NC(=O)[C@@H](Cc2ccc(OC)cc2)NC(=O)[C@H](CCCCCN(O)C(C)=O)NC(=O)[C@@H]2CCCCN2C1=O`, 58 µM; as for `CC[C@@H](C)[C@@H]1NC(=O)[C@@H](Cc2ccc(OC)cc2)NC(=O)[C@H](CCCCN(O)C(C)=O)NC(=O)[C@@H]2CCCCN2C1=O`, 88.5 µM.
In assay [5], `CC(/C=C/C(=O)NO)=C\[C@@H](C)C(=O)c1ccc(N(C)C)cc1` [TRICHOSTATIN] displayed an EC1000 of 0.19 µM.
As for `CC[C@@H](C)[C@@H]1NC(=O)[C@@H](Cc2ccc(OC)cc2)NC(=O)[C@H](CCCCCN(O)C=O)NC(=O)[C@@H]2CCCN2C1=O`, the half-inhibitory concentration (IC50) came to 0.029 µM in assay [1] (b16/bl6), 0.033 µM in assay [6] and 0.034 µM in assay [3] (b16/bl6).
Compound `CC[C@@H](C)[C@@H]1NC(=O)[C@@H](Cc2ccc(OC)cc2)NC(=O)[C@H](CCCCCN(O)C(C)=O)NC(=O)[C@H]2CCCCN2C1=O` registered an IC50 in assay [2] of 43.8 µM.
Same read-out and setting: to `CC[C@@H](C)[C@@H]1NC(=O)[C@@H](Cc2ccc(OC)cc2)NC(=O)[C@H](CCCCCCC(=O)NO)NC(=O)[C@@H]2CCCCN2C1=O` belongs 0.00396 µM.
`CC[C@@H](C)[C@@H]1NC(=O)[C@@H](Cc2ccc(OC)cc2)NC(=O)[C@H](CCCCCN(O)C=O)NC(=O)[C@H]2CCCN2C1=O` registered an EC1000 in assay [5] of 0.61 µM. Further, the IC50 turned out to be 0.178 µM in assay [1], 0.059 µM in assay [3] and 0.067 µM in assay [4].
